Measured values: patent publication US20160122821A1, “GENETIC MARKERS OF ANTIPSYCHOTIC RESPONSE” (SUREGENE, LLC, priority 2013, published 2016)

Tested on: Caucasian patients with schizophrenia (CATIE)
Experiment: Genetic association (linear regression, additive model) of SNP alleles with MMRM-modelled change in PANSS Total Score under antipsychotic treatment, CATIE trial
Format: in vivo, human

OCCOCCN1CCN(C2=Nc3ccccc3Sc3ccccc32)CC1 [Quetiapine, quetiapine]
Beta (PANSS) (AKAP9 rs35759833 allele C, P 4.46E−02): −4.62 PANSS
Beta (PANSS) (ARSB rs25414 allele C, P 2.37E−03): −9.37 PANSS
Beta (PANSS) (ATP2B2 rs11712897 allele C, P 2.77E−02): −3.54 PANSS
Beta (PANSS) (C13orf35 rs4907727 allele C, P 2.16E−02): −3.58 PANSS
Beta (PANSS) (C15orf41 rs8027206 allele A, P 2.90E−02): −3.40 PANSS
Beta (PANSS) (CA10 rs7210687 allele C, P 2.52E−02): −3.24 PANSS
Beta (PANSS) (CA10 rs17607202 allele C, P 3.87E−02): −3.10 PANSS
Beta (PANSS) (CACNA2D3 rs9861155 allele A, P 2.07E−02): −4.28 PANSS
Beta (PANSS) (CCBE1 rs12606241 allele G, P 3.38E−02): −4.12 PANSS
Beta (PANSS) (CDH13 rs3935908 allele G, P 4.47E−02): −2.89 PANSS
Beta (PANSS) (CDH13 rs8048616 allele C, P 2.03E−02): −3.49 PANSS
Beta (PANSS) (CERK rs78424 allele A, P 2.86E−02): −3.60 PANSS
Beta (PANSS) (CHRM3 rs4659552 allele A, P 3.50E−02): −3.02 PANSS
Beta (PANSS) (CLSTN2 rs10513102 allele C, P 4.28E−02): −4.05 PANSS
Beta (PANSS) (CNTN6 rs7646412 allele A, P 2.28E−02): −4.64 PANSS
Beta (PANSS) (CNTNAP2 rs10240221 allele A, P 3.63E−02): −3.22 PANSS
Beta (PANSS) (COL22A1 rs4311658 allele G, P 2.37E−03): −5.04 PANSS
Beta (PANSS) (COL22A1 rs4442151 allele C, P 2.37E−03): −5.04 PANSS
Beta (PANSS) (CPLX2 rs2243404 allele C, P 2.25E−02): −4.30 PANSS
Beta (PANSS) (CSMD1 rs2616996 allele G, P 4.49E−02): −3.44 PANSS
Beta (PANSS) (CTNNA2 rs10201249 allele A, P 2.33E−02): −4.77 PANSS
Beta (PANSS) (CTNNA2 rs10520244 allele C, P 2.12E−02): −6.07 PANSS
Beta (PANSS) (CTNNA2 rs17018593 allele A, P 2.95E−02): −4.25 PANSS
Beta (PANSS) (DENND4C rs2666797 allele C, P 2.72E−02): −3.79 PANSS
Beta (PANSS) (DGKD rs838717 allele A, P 2.74E−02): −3.38 PANSS
Beta (PANSS) (DLC1 rs12677920 allele A, P 3.27E−02): −3.35 PANSS
Beta (PANSS) (DLG2 rs7101982 allele C, P 4.47E−02): −2.93 PANSS
Beta (PANSS) (DYNC1I1 rs17638044 allele C, P 2.39E−03): −8.72 PANSS
Beta (PANSS) (ERG rs10854385 allele A, P 3.76E−02): −4.00 PANSS
Beta (PANSS) (ESRRG rs9441544 allele C, P 2.40E−02): −4.04 PANSS
Beta (PANSS) (ETV1 rs41505 allele C, P 2.62E−03): −4.08 PANSS
Beta (PANSS) (EXOC2 rs1747599 allele G, P 4.44E−02): −3.71 PANSS
Beta (PANSS) (EXOC2 rs17135234 allele A, P 3.55E−02): −4.93 PANSS
Beta (PANSS) (FBXL2 rs6772365 allele C, P 4.07E−02): −3.45 PANSS
Beta (PANSS) (FHIT rs12636662 allele A, P 2.18E−03): −4.62 PANSS
Beta (PANSS) (FLJ38109 rs11167681 allele C, P 3.82E−02): −3.35 PANSS
Beta (PANSS) (FMN2 rs1020709 allele C, P 3.77E−02): −3.38 PANSS
Beta (PANSS) (FMNL2 rs1155779 allele C, P 2.20E−02): −3.41 PANSS
Beta (PANSS) (FOXP1 rs831440 allele C, P 3.37E−02): −3.67 PANSS
Beta (PANSS) (GALNTL4 rs4909979 allele C, P 2.49E−02): −5.30 PANSS
Beta (PANSS) (GNG2 rs1343870 allele G, P 4.37E−02): −3.12 PANSS
Beta (PANSS) (GPR116 rs9395218 allele C, P 3.77E−02): −4.73 PANSS
Beta (PANSS) (GRID2 rs1433667 allele C, P 2.84E−03): −4.87 PANSS
Beta (PANSS) (GRID2 rs1836115 allele A, P 3.01E−02): −3.53 PANSS
Beta (PANSS) (GRID2 rs13103135 allele C, P 4.20E−02): −3.66 PANSS
Beta (PANSS) (GRM8 rs17865066 allele A, P 2.61E−02): −10.79 PANSS
Beta (PANSS) (GRM8 rs17865434 allele C, P 2.61E−02): −10.79 PANSS
Beta (PANSS) (HAAO rs3755540 allele C, P 2.01E−02): −3.79 PANSS
Beta (PANSS) (INMT-FAM188B;FAM188B rs10230286 allele A, P 2.09E−02): −3.51 PANSS
Beta (PANSS) (INMT-FAM188B;FAM188B rs11972565 allele A, P 2.70E−02): −3.53 PANSS
Beta (PANSS) (ITPR2 rs11048710 allele A, P 3.74E−02): −3.75 PANSS
Beta (PANSS) (IYD rs2076286 allele A, P 4.24E−02): −6.69 PANSS
Beta (PANSS) (JAG1 rs6074164 allele A, P 3.54E−02): −4.59 PANSS
Beta (PANSS) (KCNB1 rs34467662 allele C, P 2.39E−02): −9.06 PANSS
Beta (PANSS) (KCNIP4 rs10516363 allele A, P 3.20E−02): −3.43 PANSS
Beta (PANSS) (KCNQ1 rs422314 allele C, P 3.83E−02): −3.18 PANSS
Beta (PANSS) (KCNQ3 rs17659416 allele A, P 2.67E−02): −4.39 PANSS
Beta (PANSS) (LDB2 rs3805320 allele A, P 3.90E−02): −3.16 PANSS
Beta (PANSS) (LRFN2 rs2078460 allele A, P 3.06E−02): −3.67 PANSS
Beta (PANSS) (LRP1B rs2380943 allele C, P 1.96E−02): −3.47 PANSS
Beta (PANSS) (LRP1B rs34488772 allele A, P 2.80E−02): −8.41 PANSS
Beta (PANSS) (MCPH1 rs2515509 allele C, P 2.44E−02): −5.16 PANSS
Beta (PANSS) (MSR1 rs6981231 allele C, P 2.17E−02): −7.67 PANSS
Beta (PANSS) (MYO10 rs26317 allele A, P 2.25E−02): −3.80 PANSS
Beta (PANSS) (NCAM2 rs12483671 allele A, P 4.38E−02): −3.47 PANSS
Beta (PANSS) (NLGN1 rs2861338 allele A, P 2.69E−02): −3.51 PANSS
Beta (PANSS) (NPAS3 rs927763 allele G, P 3.26E−02): −4.45 PANSS
Beta (PANSS) (NRG3 rs12767532 allele G, P 2.93E−02): −3.66 PANSS
Beta (PANSS) (OPCML rs3018407 allele A, P 2.60E−02): −3.48 PANSS
Beta (PANSS) (OPCML rs3019855 allele C, P 3.16E−02): −3.40 PANSS
Beta (PANSS) (OPCML rs3920986 allele G, P 2.33E−02): −3.72 PANSS
Beta (PANSS) (PARD3B rs7589114 allele C, P 4.08E−02): −3.18 PANSS
Beta (PANSS) (PCDH15 rs2384470 allele C, P 2.33E−03): −5.21 PANSS
Beta (PANSS) (PIKFYVE rs17699982 allele A, P 4.51E−02): −4.12 PANSS
Beta (PANSS) (PLCG2 rs4889447 allele C, P 3.48E−02): −5.77 PANSS
Beta (PANSS) (PLXDC2 rs989767 allele A, P 4.48E−02): −3.31 PANSS
Beta (PANSS) (PRKG1 rs1904018 allele C, P 2.81E−02): −3.09 PANSS
Beta (PANSS) (PTPRT rs876523 allele C, P 2.06E−02): −3.45 PANSS
Beta (PANSS) (RGS7 rs2678780 allele A, P 2.47E−03): −4.56 PANSS
Beta (PANSS) (RGS7 rs10802943 allele C, P 3.52E−02): −2.99 PANSS
Beta (PANSS) (RIMBP2 rs12305517 allele C, P 2.16E−02): −5.62 PANSS
Beta (PANSS) (ROBO2 rs1470571 allele C, P 3.50E−02): −3.69 PANSS
Beta (PANSS) (RPRD1A rs4799835 allele A, P 4.31E−02): −3.76 PANSS
Beta (PANSS) (SAMD4A rs8011374 allele C, P 3.60E−02): −3.17 PANSS
Beta (PANSS) (SDK2 rs4969114 allele A, P 2.22E−02): −3.33 PANSS
Beta (PANSS) (SGCZ rs12155874 allele A, P 3.89E−02): −3.08 PANSS
Beta (PANSS) (SHC3 rs10122011 allele C, P 2.47E−02): −3.43 PANSS
Beta (PANSS) (SLC35F3 rs12087906 allele G, P 3.30E−02): −9.04 PANSS
Beta (PANSS) (SORBS1 rs4572071 allele A, P 3.25E−02): −3.66 PANSS
Beta (PANSS) (SORBS1 rs4918911 allele C, P 4.32E−02): −3.34 PANSS
Beta (PANSS) (ST8SIA1 rs4606528 allele C, P 3.26E−02): −3.84 PANSS
Beta (PANSS) (STX11 rs3734228 allele C, P 3.21E−02): −9.67 PANSS
Beta (PANSS) (STX11 rs6912580 allele C, P 3.21E−02): −9.67 PANSS
Beta (PANSS) (TGIF1 rs12606927 allele A, P 4.02E−02): −3.49 PANSS
Beta (PANSS) (TMC1 rs10869183 allele T, P 2.41E−02): −3.43 PANSS
Beta (PANSS) (TMTC2 rs7974520 allele A, P 3.49E−02): −3.64 PANSS
Beta (PANSS) (TRIM9 rs882413 allele C, P 2.00E−02): −4.35 PANSS
Beta (PANSS) (TSC1 rs1050700 allele A, P 4.13E−02): −3.29 PANSS
Beta (PANSS) (USP10 rs2012708 allele C, P 3.86E−02): −3.05 PANSS
Beta (PANSS) (WWOX rs7203676 allele C, P 2.23E−02): −3.87 PANSS
